Assay in all cases: microbe, parasite or virus in culture
What all share (type): cell-based

Experiment [1] concerns β-lactamase derepressed mutant (H547) of P. aeruginosa. Particulars: Pseudomonas aeruginosa, read-out: MIC B MIC of Carb. Here is the method:
(§1) The biological activity of the peptides can be determined by standard methods known to those of skill in the art, such as Aminimal inhibitory concentration (MIC)≅ assay described in the present examples, whereby the lowest concentration at which no change in OD is observed for a given period of time is recorded as MIC. Alternatively, Afractional inhibitory concentration (FIC)≅ is also useful for determination of synergy between the peptides of the invention, or the peptides in combination with known antibiotics. FICs are performed by checkerboard titrations of peptides in one dimension of a microtiter plate, and of antibiotics in the other dimension, for example. The FIC is calculated by looking at the impact of one antibiotic on the MIC of the other and vice versa. […] Preferably, an FIC of less than 0.5 is obtained for synergism. As used herein, FIC can be determined as follows: [formula]
(§2) To test whether the peptides of the invention synergize with various antibiotics, the following method was employed. Fractional Inhibitory Concentration (FIC) was used to determine synergy of peptides combined with antibiotics (e.g., carbenicillin/ciprofloxacin) against Pseudomonas aeruginosa. The following methodology was followed:
(§3) (1) Determination of MIC of cationic peptides (MIC A):
(§4) 100 μl Mueller Hinton broth (MHB) was added per well
(§5) 12.5 μl of 10× test concentration peptide was added per well to get final peptide concentration of e.g., 128, 64, 32, . . . 0.025 μg/ml from row 1 to 11;
(§6) 10 μl of 10^−4 dilution of overnight bacterial culture was added per well.
(§7) (2) Determination of MIC of Carbenicillin/Ciprofloxacin (MIC B):
(§8) 100 μl MHB was added per well;
(§9) 100 μl of 2× test concentration of antibiotic was added in the first well of the row, and doubling dilutions performed across the plate from column 1 to 11;
(§10) (3) Determination of MIC of antibiotics (B) when combined with peptides at concentration A:
(§11) 100 μl Carbenicillin (512 μg/ml) or Ciprofloxacin (8 μg/ml) was added in each well of column 1; doubling dilutions were performed across the plate;
(§12) 100 μl of the peptide was added in all wells of row 1, mixed, and 100 μl withdrawn and added to row 2, etc., creating a checkerboard titration.
(§13) 10 μl of 10^−4 dilution of overnight culture was added per well;
(§14) plates were incubated at 37EC for 18-24 hours. Combination MIC values A and B were taken as the lowest concentration of drug that reduced bacterial growth by more than 50% in any given column.
(§15) (4) FIC index=FICA+FICB=(A)/MIC A+(B)/MIC B. An FIC index of approximately 0.5 or less indicates synergy; 1.0 reflects additivity; and >1.0 indicates antagonism.

In experiment [2] the test system is mutant (Nal B, H744) of P. aeruginosa. The following applies: Pseudomonas aeruginosa, read-out: MIC B MIC of Cipro. Here is the method:
as §1, §2, §3, §4, §5, §6, §7, §8, §9, §10, §11, §12, §13, §14, §15

Experiment [3] concerns P. aeruginosa efflux mutant (Nal B, H744). Here is the method: as §1, §2, §3, §4, §5, §6, §7, §8, §9, §10, §11, §12, §13, §14, §15

The text below walks through data of patent US6818407B2, “Anti-endotoxic antimicrobial cationic peptides and methods of use therfor” (priority 1998, dated 2004).

As to `CC1(C)S[C@@H]2[C@H](NC(=O)C(C(=O)O)c3ccccc3)C(=O)N2[C@H]1C(=O)O` (stereo partly shown) [Carb, Carbenicillin, reference compound], the MIC in experiment [1] was 64 µg/mL. For the compound `O=C(O)c1cn(C2CC2)c2cc(N3CCNCC3)c(F)cc2c1=O` [Cipro, ciprofloxacin, reference compound], in experiment [2], the MIC is 0.25 µg/mL.

On to `CCn1cc(C(=O)O)c(=O)c2ccc(C)nc21` [Nal, nalidixic acid, reference compound], for which the MIC in experiment [3] (Pseudomonas aeruginosa, read-out: MIC B MIC of Nal) stood at 3200 µg/mL. Besides, the “MIC B MIC of Nal” value in experiment [3] (nalidixic acid alone, efflux mutant Nal B, H744, unit from method) was determined as 3200 µg/mL.
